# Source: a compilation of properties of binary mixtures (doi:10.1016/j.fluid.2019.06.006)
# Assay: xn = mol fraction of the nth substance listed
# Details: 100 kPa
SMILES,"viscosity (303.15 K, x1 = 0.0941)","viscosity (303.15 K, x1 = 0.483)","viscosity (313.15 K, x1 = 0.0941)","viscosity (313.15 K, x1 = 0.1894)","viscosity (313.15 K, x1 = 0.483)","viscosity (313.15 K, x1 = 0.5836)","viscosity (323.15 K, x1 = 0.0941)","viscosity (323.15 K, x1 = 0.1894)","viscosity (323.15 K, x1 = 0.2859)","viscosity (323.15 K, x1 = 0.483)","viscosity (323.15 K, x1 = 0.5836)","viscosity (333.15 K, x1 = 0.0941)","viscosity (333.15 K, x1 = 0.1894)","viscosity (333.15 K, x1 = 0.2859)","viscosity (333.15 K, x1 = 0.483)","viscosity (333.15 K, x1 = 0.5836)","viscosity (303.15 K, x2 = 0)","viscosity (323.15 K, x2 = 0)","viscosity (333.15 K, x2 = 0)"
OC[C@@H](O)[C@@H](O)[C@H](O)[C@@H](O)CO + CC(=O)[O-].CC[n+]1ccn(C)c1,307 mPa·s,1491.9 mPa·s,155 mPa·s,143.2 mPa·s,572 mPa·s,816 mPa·s,88 mPa·s,80.7 mPa·s,292 mPa·s,257 mPa·s,348 mPa·s,54.4 mPa·s,49.5 mPa·s,153 mPa·s,130.5 mPa·s,170.6 mPa·s,,,
CC(=O)[O-].CC[n+]1ccn(C)c1 + OC[C@H](O)[C@@H](O)[C@H](O)[C@H](O)CO,,,,,,,,,,,,,,,,,89.4 mPa·s,34.6 mPa·s,23.8 mPa·s
